The compounds below were run against T1, PIP4K2C (Homo sapiens, UniProt Q8TBX8) (assay: Enzyme Binding Assay (KINOMEscan): active site-directed competition binding to an immobilized ligand). Conditions: 11-point dose response, duplicate, top concentration 5 micromolar; read-out: Pip4k2c Kd: IC50.
T1 sequence (Q8TBX8 1-421): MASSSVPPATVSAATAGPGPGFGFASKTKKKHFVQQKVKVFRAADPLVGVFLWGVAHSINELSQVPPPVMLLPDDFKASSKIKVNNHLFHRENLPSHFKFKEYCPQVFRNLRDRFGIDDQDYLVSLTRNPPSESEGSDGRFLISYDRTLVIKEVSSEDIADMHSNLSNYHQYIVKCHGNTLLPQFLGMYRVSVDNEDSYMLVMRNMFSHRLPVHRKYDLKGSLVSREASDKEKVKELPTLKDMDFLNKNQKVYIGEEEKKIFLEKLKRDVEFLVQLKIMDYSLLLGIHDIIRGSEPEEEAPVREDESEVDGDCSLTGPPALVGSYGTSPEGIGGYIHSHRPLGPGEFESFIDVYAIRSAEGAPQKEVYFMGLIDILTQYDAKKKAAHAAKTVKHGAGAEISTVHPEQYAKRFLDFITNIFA
Set-up: purchased Eurofins DiscoverX, San Diego, CA 87-0007-1094
In short: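 IC50 values come from Hill-equation fits (Levenberg-Marquardt) to 11-point duplicate titrations starting at 5 micromolar. Read-out is competition of compound with an immobilized ligand for the kinase active site.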

Structure (SMILES) | IC50
CC(=O)N1CCC[C@H](Nc2ncc(Cl)c(-c3cccc(-n4ccccc4=O)c3)n2)C1 [Compound 129, (S)-1-(3-(2-((1-acetylpiperidin-3-yl)amino)-5-chloropyrimidin-4-yl)phenyl)pyridin-2(1H)-one] | < 500 nM
CC(=O)N1CCC(Nc2ncc(Cl)c(-c3cc(C4CC4)[nH]n3)n2)CC1 [Compound 132, 1-(4-((5-chloro-4-(5-cyclopropyl-1H-pyrazol-3-yl)pyrimidin-2-yl)amino)piperidin-1-yl)ethan-1-one] | < 500 nM
CNC(=O)[C@H]1C[C@H](Nc2ncc(Cl)c(-c3cnn(-c4cc[nH]c(=O)c4)c3)n2)C1 [Compound 133, trans-(1r,3r)-3-((5-chloro-4-(1-(2-oxo-1,2-dihydropyridin-4-yl)-1H-pyrazol-4-yl)pyrimidin-2-yl)amino)-N-methylcyclobutane-1-carboxamide] | 500 to 1000 nM
CC(=O)N1CCC(Nc2ncc(Cl)c(-c3cccc(-c4ccc[nH]c4=O)c3)n2)CC1 [Compound 137, 3-(3-(2-((1-acetylpiperidin-4-yl)amino)-5-chloropyrimidin-4-yl)phenyl)pyridin-2(1H)-one] | < 500 nM
CNC(=O)[C@H]1CC[C@@H](Nc2ncc(Cl)c(-c3cccc(-c4ccc[nH]c4=O)c3)n2)CC1 [Compound 138, cis-(1s,4s)-4-((5-chloro-4-(3-(2-oxo-1,2-dihydropyridin-3-yl)phenyl)pyrimidin-2-yl)amino)-N-methylcyclohexane-1-carboxamide] | < 500 nM
CNC(=O)[C@H]1C[C@H](Nc2ncc(Cl)c(-c3cccc(-c4ccc[nH]c4=O)c3)n2)C1 [Compound 139, trans-(1r,3r)-3-((5-chloro-4-(3-(2-oxo-1,2-dihydropyridin-3-yl)phenyl)pyrimidin-2-yl)amino)-N-methylcyclobutane-1-carboxamide] | < 500 nM
CC(=O)N1CCC[C@H](Nc2ncc(Cl)c(-c3ccc(=O)n(-c4ccc(F)cc4)c3)n2)C1 [Compound 143, (S)-5-(2-((1-acetylpiperidin-3-yl)amino)-5-chloropyrimidin-4-yl)-1-(4-fluorophenyl)pyridin-2(1H)-one] | 500 to 1000 nM
CNC(=O)[C@H]1CC[C@H](Nc2ncc(Cl)c(-c3cc(C4CC4)[nH]n3)n2)CC1 [Compound 144, trans-(1r,4r)-4-((5-chloro-4-(5-cyclopropyl-1H-pyrazol-3-yl)pyrimidin-2-yl)amino)-N-methylcyclohexane-1-carboxamide] | 1000 to 5000 nM
CNC(=O)[C@H]1CC[C@H](Nc2ncc(Cl)c(-c3cnn(-c4ccc(=O)[nH]c4)c3)n2)CC1 [Compound 146, trans-(1r,4r)-4-((5-chloro-4-(1-(6-oxo-1,6-dihydropyridin-3-yl)-1H-pyrazol-4-yl)pyrimidin-2-yl)amino)-N-methylcyclohexane-1-carboxamide] | < 500 nM
CNC(=O)[C@H]1CC[C@@H](Nc2ncc(Cl)c(-c3cnn(-c4cc[nH]c(=O)c4)c3)n2)CC1 [Compound 148, cis-(1s,4s)-4-((5-chloro-4-(1-(2-oxo-1,2-dihydropyridin-4-yl)-1H-pyrazol-4-yl)pyrimidin-2-yl)amino)-N-methylcyclohexane-1-carboxamide] | 1000 to 5000 nM
CC(=O)N1CCC[C@H](Nc2ncc(Cl)c(-c3cccc(-c4ccc[nH]c4=O)c3)n2)C1 [Compound 152, (S)-3-(3-(2-((1-acetylpiperidin-3-yl)amino)-5-chloropyrimidin-4-yl)phenyl)pyridin-2(1H)-one] | < 500 nM
CNC(=O)[C@H]1CC[C@H](Nc2ncc(Cl)c(-c3cccc(-c4ccc[nH]c4=O)c3)n2)CC1 [Compound 155, trans-(1r,4r)-4-((5-chloro-4-(3-(2-oxo-1,2-dihydropyridin-3-yl)phenyl)pyrimidin-2-yl)amino)-N-methylcyclohexane-1-carboxamide] | < 500 nM
CNC(=O)[C@H]1C[C@@H](Nc2ncc(Cl)c(-c3cccc(-c4ccc[nH]c4=O)c3)n2)C1 [Compound 156, cis-3-((5-chloro-4-(3-(2-oxo-1,2-dihydropyridin-3-yl)phenyl)pyrimidin-2-yl)amino)-N-methylcyclobutane-1-carboxamide] | < 500 nM
CC(=O)N1CCC[C@H](Nc2ncc(Cl)c(-c3cccc(-c4cccc(=O)[nH]4)c3)n2)C1 [Compound 157, (S)-6-(3-(2-((1-acetylpiperidin-3-yl)amino)-5-chloropyrimidin-4-yl)phenyl)pyridin-2(1H)-one] | < 500 nM
CNC(=O)[C@H]1C[C@@H](Nc2ncc(Cl)c(-c3cc(C4CC4)[nH]n3)n2)C1 [Compound 161, cis-3-((5-chloro-4-(5-cyclopropyl-1H-pyrazol-3-yl)pyrimidin-2-yl)amino)-N-methylcyclobutane-1-carboxamide] | < 500 nM

Further lines, results first:

IC50 | Structure (SMILES)
< 500 nM | CC(=O)N1CCC[C@H](Nc2ncc(Cl)c(-c3cccc(-c4ccc(F)cc4)c3)n2)C1 [Compound 128, (S)-1-(3-((5-chloro-4-(4′-fluoro-[1,1′-biphenyl]-3-yl)pyrimidin-2-yl)amino)piperidin-1-yl)ethan-1-one]
< 500 nM | CC(=O)N[C@H]1CC[C@@H](Nc2ncc(Cl)c(-c3cccc(-c4ccc(F)cc4)n3)n2)CC1 [Compound 130, cis-N-((1s,4s)-4-((5-chloro-4-(6-(4-fluorophenyl)pyridin-2-yl)pyrimidin-2-yl)amino)cyclohexyl)acetamide]
< 500 nM | CNC(=O)[C@H]1CC[C@@H](Nc2ncc(Cl)c(-c3cccc(-c4ccc(F)cc4)n3)n2)CC1 [Compound 131, cis-(1s,4s)-4-((5-chloro-4-(6-(4-fluorophenyl)pyridin-2-yl)pyrimidin-2-yl)amino)-N-methylcyclohexane-1-carboxamide]
< 500 nM | CNC(=O)[C@H]1CC[C@H](Nc2ncc(Cl)c(-c3cnn(-c4ccc(F)cc4)c3)n2)CC1 [Compound 134, trans-(1r,4r)-4-((5-chloro-4-(1-(4-fluorophenyl)-1H-pyrazol-4-yl)pyrimidin-2-yl)amino)-N-methylcyclohexane-1-carboxamide]
< 500 nM | CNC(=O)[C@H]1C[C@H](Nc2ncc(Cl)c(-c3cccc(-c4ccc(F)cc4)n3)n2)C1 [Compound 140, trans-(1r,3r)-3-((5-chloro-4-(6-(4-fluorophenyl)pyridin-2-yl)pyrimidin-2-yl)amino)-N-methylcyclobutane-1-carboxamide]
< 500 nM | CC(=O)N1CCC[C@H](Nc2ncc(Cl)c(-c3ccnc(-c4ccc(F)cc4)c3)n2)C1 [Compound 141, (S)-1-(3-((5-chloro-4-(2-(4-fluorophenyl)pyridin-4-yl)pyrimidin-2-yl)amino)piperidin-1-yl)ethan-1-one]
< 500 nM | CC(=O)N[C@H]1CC[C@H](Nc2ncc(Cl)c(-c3ccnc(-c4ccc(F)cc4)c3)n2)CC1 [Compound 142, trans-N-((1r,4r)-4-((5-chloro-4-(2-(4-fluorophenyl)pyridin-4-yl)pyrimidin-2-yl)amino)cyclohexyl)acetamide]
< 500 nM | CC(=O)N[C@H]1CC[C@H](Nc2ncc(Cl)c(-c3cnn(-c4ccc(=O)[nH]c4)c3)n2)CC1 [Compound 145, trans-N-((1r,4r)-4-((5-chloro-4-(1-(6-oxo-1,6-dihydropyridin-3-yl)-1H-pyrazol-4-yl)pyrimidin-2-yl)amino)cyclohexyl)acetamide]
< 500 nM | CC(=O)N[C@H]1CC[C@H](Nc2ncc(Cl)c(-c3cnn(-c4cc[nH]c(=O)c4)c3)n2)CC1 [Compound 147, trans-N-((1r,4r)-4-((5-chloro-4-(1-(2-oxo-1,2-dihydropyridin-4-yl)-1H-pyrazol-4-yl)pyrimidin-2-yl)amino)cyclohexyl)acetamide]
< 500 nM | CC(=O)N[C@H]1CC[C@H](Nc2ncc(Cl)c(-c3cnn(-c4ccc[nH]c4=O)c3)n2)CC1 [Compound 149, trans-N-((1r,4r)-4-((5-chloro-4-(1-(2-oxo-1,2-dihydropyridin-3-yl)-1H-pyrazol-4-yl)pyrimidin-2-yl)amino)cyclohexyl)acetamide]
< 500 nM | CC(=O)N[C@H]1CC[C@@H](Nc2ncc(Cl)c(-c3cccc(-c4ccc[nH]c4=O)c3)n2)CC1 [Compound 153, cis-N-((1s,4s)-4-((5-chloro-4-(3-(2-oxo-1,2-dihydropyridin-3-yl)phenyl)pyrimidin-2-yl)amino)cyclohexyl)acetamide]
< 500 nM | CC(=O)N[C@H]1CC[C@H](Nc2ncc(Cl)c(-c3cccc(-c4ccc[nH]c4=O)c3)n2)CC1 [Compound 154, trans-N-((1r,4r)-4-((5-chloro-4-(3-(2-oxo-1,2-dihydropyridin-3-yl)phenyl)pyrimidin-2-yl)amino)cyclohexyl)acetamide]
< 500 nM | CC(=O)N[C@H]1CC[C@H](Nc2ncc(Cl)c(-c3cccc(-c4ccc(F)cc4)n3)n2)CC1 [Compound 158, trans-N-((1r,4r)-4-((5-chloro-4-(6-(4-fluorophenyl)pyridin-2-yl)pyrimidin-2-yl)amino)cyclohexyl)acetamide]
< 500 nM | CNC(=O)[C@H]1CC[C@H](Nc2ncc(Cl)c(-c3cccc(-c4ccc(F)cc4)n3)n2)CC1 [Compound 159, trans-(1r,4r)-4-((5-chloro-4-(6-(4-fluorophenyl)pyridin-2-yl)pyrimidin-2-yl)amino)-N-methylcyclohexane-1-carboxamide]
< 500 nM | CNC(=O)[C@H]1CC[C@H](Nc2ncc(Cl)c(-c3ccnc(-c4ccc(F)cc4)c3)n2)CC1 [Compound 160, trans-(1r,4r)-4-((5-chloro-4-(2-(4-fluorophenyl)pyridin-4-yl)pyrimidin-2-yl)amino)-N-methylcyclohexane-1-carboxamide]

Reference: patent US20260355196A1, “INHIBITORS AND DEGRADERS OF PIP4K PROTEIN” (Larkspur Biosciences, Inc., priority 2023, published 2026)
